“Also recorded” adds a separate entry of the source. Read-outs that look alike come from different tables or passages of the source.
Experiments:
[1] = cancer patients; cited from earlier work
[2] = tested on: non-Japanese patients with advanced solid tumours; details: phase I studies in USA and Europe; cited from earlier work
[3] = cited from earlier work
[4] = tested on: newly diagnosed advanced ovarian cancer; details: regardless of presence or absence of HRd; cited from earlier work
[5] = tested on: Japanese patients with advanced solid tumours; details: for Tolerability: 200 or 300 mg/day, Japanese patients with advanced solid tumours; for Patients with dose-limiting toxicity (DLT) in cycle 1: cohort 2, 300 mg/day (n = 6)
[6] = tested on: metastatic or locally advanced solid tumours
[7] = tested on: platinum-sensitive recurrent ovarian cancer; details: cited from earlier work
[8] = Plasma pharmacokinetics of niraparib and M1, cycle 1 days 1 and 21; type: in vivo, human; details: for AUC(0-t) / Cmax: oral; for Cmax / Cmin: geometric mean (SD)
[9] = Niraparib 200 mg/day (n = 3), Any grade
[10] = Niraparib 200 mg/day (n = 3), Grade 3/4
[11] = Niraparib 300 mg/day (n = 6), Any grade
[12] = Niraparib 300 mg/day (n = 6), Grade 3/4
[13] = cohort 2, 300 mg/day, listed as niraparib
[14] = cohort 2, 300 mg/day, three patients

Compound: NC(=O)c1cccc2cn(-c3ccc([C@@H]4CCCNC4)cc3)nc12 [Niraparib, niraparib]
- bioavailability after oral administration [1]: ~ 73%
- maximum tolerated dose (MTD) [2]: 300 mg once daily
- tumour exposure at steady state [3]: high
- progression-free survival (PFS) compared with placebo [4]: significantly prolonged
- Time to recovery from grade 4 thrombocytopenia / platelet count decreased ([5]; 300 mg/day cohort): ~ 10 days
- Patients with grade 4 thrombocytopenia or platelet count decreased ([5]; 300 mg/day cohort, day 14 of cycle 1 and day 8 of cycle 2): two patients
- AEs of special interest (myelodysplastic syndrome, acute myeloid leukaemia, hypertensive crisis) ([5]; 200 and 300 mg/day): no AEs of special interest
- Tolerability [5]: tolerable
- Tolerability ([5]; listed as niraparib): generally safe and tolerable
- Patients with events: ALT increased [5, 9]: 0 n (%)
- Patients with events: AST increased [5, 9]: 0 n (%)
- Patients with events: Anaemia [5, 9]: 0 n (%)
- Patients with events: Any TEAE [5, 9]: 3 (100.0) n (%)
- Patients with events: Blood ALP increased [5, 9]: 1 (33.3) n (%)
- Patients with events: Blood creatinine increased [5, 9]: 1 (33.3) n (%)
- Patients with events: Chest pain [5, 9]: 0 n (%)
- Patients with events: Constipation [5, 9]: 1 (33.3) n (%)
- Patients with events: Decreased appetite [5, 9]: 2 (66.7) n (%)
- Patients with events: Diabetes mellitus [5, 9]: 0 n (%)
- Patients with events: Diarrhoea [5, 9]: 0 n (%)
- Patients with events: Fatigue [5, 9]: 2 (66.7) n (%)
- Patients with events: Febrile neutropenia [5, 9]: 0 n (%)
- Patients with events: GGT increased [5, 9]: 0 n (%)
- Patients with events: Hypertension [5, 9]: 0 n (%)
- Patients with events: Malaise [5, 9]: 1 (33.3) n (%)
- Patients with events: Nausea [5, 9]: 1 (33.3) n (%)
- Patients with events: Platelet count decreased [5, 9]: 1 (33.3) n (%)
- Patients with events: Pyelonephritis [5, 9]: 0 n (%)
- Patients with events: Thrombocytopenia [5, 9]: 0 n (%)
- Patients with events: Vomiting [5, 9]: 2 (66.7) n (%)
- Patients with events: White blood cell count decreased [5, 9]: 1 (33.3) n (%)
- Patients with events: ALT increased [5, 10]: 0 n (%)
- Patients with events: AST increased [5, 10]: 0 n (%)
- Patients with events: Anaemia [5, 10]: 0 n (%)
- Patients with events: Any TEAE [5, 10]: 1 (33.3) n (%)
- Patients with events: Blood ALP increased [5, 10]: 1 (33.3) n (%)
- Patients with events: Blood creatinine increased [5, 10]: 0 n (%)
- Patients with events: Chest pain [5, 10]: 0 n (%)
- Patients with events: Constipation [5, 10]: 0 n (%)
- Patients with events: Decreased appetite [5, 10]: 0 n (%)
- Patients with events: Diabetes mellitus [5, 10]: 0 n (%)
- Patients with events: Diarrhoea [5, 10]: 0 n (%)
- Patients with events: Fatigue [5, 10]: 0 n (%)
- Patients with events: Febrile neutropenia [5, 10]: 0 n (%)
- Patients with events: GGT increased [5, 10]: 0 n (%)
- Patients with events: Hypertension [5, 10]: 0 n (%)
- Patients with events: Malaise [5, 10]: 0 n (%)
- Patients with events: Nausea [5, 10]: 0 n (%)
- Patients with events: Platelet count decreased [5, 10]: 0 n (%)
- Patients with events: Pyelonephritis [5, 10]: 0 n (%)
- Patients with events: Thrombocytopenia [5, 10]: 0 n (%)
- Patients with events: Vomiting [5, 10]: 0 n (%)
- Patients with events: White blood cell count decreased [5, 10]: 1 (33.3) n (%)
- Patients with events: ALT increased [5, 11]: 3 (50.0) n (%)
- Patients with events: AST increased [5, 11]: 5 (83.3) n (%)
- Patients with events: Anaemia [5, 11]: 3 (50.0) n (%)
- Patients with events: Any TEAE [5, 11]: 6 (100.0) n (%)
- Patients with events: Blood ALP increased [5, 11]: 4 (66.7) n (%)
- Patients with events: Blood creatinine increased [5, 11]: 1 (16.7) n (%)
- Patients with events: Chest pain [5, 11]: 2 (33.3) n (%)
- Patients with events: Constipation [5, 11]: 2 (33.3) n (%)
- Patients with events: Decreased appetite [5, 11]: 2 (33.3) n (%)
- Patients with events: Diabetes mellitus [5, 11]: 1 (16.7) n (%)
- Patients with events: Diarrhoea [5, 11]: 2 (33.3) n (%)
- Patients with events: Fatigue [5, 11]: 1 (16.7) n (%)
- Patients with events: Febrile neutropenia [5, 11]: 1 (16.7) n (%)
- Patients with events: GGT increased [5, 11]: 3 (50.0) n (%)
- Patients with events: Hypertension [5, 11]: 2 (33.3) n (%)
- Patients with events: Malaise [5, 11]: 2 (33.3) n (%)
- Patients with events: Nausea [5, 11]: 4 (66.7) n (%)
- Patients with events: Platelet count decreased [5, 11]: 5 (83.3) n (%)
- Patients with events: Pyelonephritis [5, 11]: 1 (16.7) n (%)
- Patients with events: Thrombocytopenia [5, 11]: 1 (16.7) n (%)
- Patients with events: Vomiting [5, 11]: 2 (33.3) n (%)
- Patients with events: White blood cell count decreased [5, 11]: 1 (16.7) n (%)
- Patients with events: ALT increased [5, 12]: 1 (16.7) n (%)
- Patients with events: AST increased [5, 12]: 0 n (%)
- Patients with events: Anaemia [5, 12]: 1 (16.7) n (%)
- Patients with events: Any TEAE [5, 12]: 4 (66.7) n (%)
- Patients with events: Blood ALP increased [5, 12]: 1 (16.7) n (%)
- Patients with events: Blood creatinine increased [5, 12]: 0 n (%)
- Patients with events: Chest pain [5, 12]: 0 n (%)
- Patients with events: Constipation [5, 12]: 0 n (%)
- Patients with events: Decreased appetite [5, 12]: 0 n (%)
- Patients with events: Diabetes mellitus [5, 12]: 1 (16.7) n (%)
- Patients with events: Diarrhoea [5, 12]: 0 n (%)
- Patients with events: Fatigue [5, 12]: 0 n (%)
- Patients with events: Febrile neutropenia [5, 12]: 1 (16.7) n (%)
- Patients with events: GGT increased [5, 12]: 2 (33.3) n (%)
- Patients with events: Hypertension [5, 12]: 0 n (%)
- Patients with events: Malaise [5, 12]: 0 n (%)
- Patients with events: Nausea [5, 12]: 0 n (%)
- Patients with events: Platelet count decreased [5, 12]: 1 (16.7) n (%)
- Patients with events: Pyelonephritis [5, 12]: 1 (16.7) n (%)
- Patients with events: Thrombocytopenia [5, 12]: 1 (16.7) n (%)
- Patients with events: Vomiting [5, 12]: 0 n (%)
- Patients with events: White blood cell count decreased [5, 12]: 0 n (%)
- Patients who discontinued treatment due to a TEAE ([5]; cohort 1, 200 mg/day): no patient
- Treatment-related TEAE: decreased appetite ([5]; cohort 1, 200 mg/day): 2 n
- Patients with grade 3 treatment-related AEs ([5]; cohort 1, 200 mg/day, blood alkaline phosphatase increased, white blood cell count decreased): one patient
- Treatment-related TEAE: decreased appetite ([5]; cohort 1, 200 mg/day, listed as niraparib): 66.7%
- Patients with grade ≥ 3 treatment-related AEs ([5]; cohort 2, 300 mg/day): five patients
- Patients with treatment-related grade 3 alanine aminotransferase increased ([5]; cohort 2, 300 mg/day): one patient
- Patients with treatment-related grade 3 anaemia ([5]; cohort 2, 300 mg/day): two patients
- Patients with treatment-related grade 3 febrile neutropenia ([5]; cohort 2, 300 mg/day): one patient
- Patients with treatment-related grade 3 gamma-glutamyl transferase increased ([5]; cohort 2, 300 mg/day): one patient
- Total number of grade ≥ 3 treatment-related AEs ([5]; cohort 2, 300 mg/day): 11
- Treatment-related TEAE: aspartate aminotransferase increased ([5]; cohort 2, 300 mg/day): 5 n
- Treatment-related TEAE: platelet count decreased ([5]; cohort 2, 300 mg/day): 5 n
- Patients with dose-limiting toxicity (DLT) in cycle 1 [5]: 16.7%
- Patients with dose-limiting toxicity (DLT) in cycle 1 ([5]; grade 4 platelet count decreased): one patient
- Treatment-related TEAE: aspartate aminotransferase increased [5, 13]: 83.3%
- Treatment-related TEAE: platelet count decreased [5, 13]: 83.3%
- Patients who discontinued treatment due to a TEAE ([5]; cohort 2, 300 mg/day, malaise and gamma-glutamyl transferase increased): Two patients
- Patients with a serious AE ([5]; cohort 2, 300 mg/day, pyelonephritis, considered unrelated to niraparib): One patient
- Treatment-related TEAE: alkaline phosphatase increased [5, 14]: 50.0%
- Treatment-related TEAE: anaemia [5, 14]: 50.0%
- Treatment-related TEAE: nausea [5, 14]: 50.0%
- Patients with PD (progressive disease) ([6]; both cohorts): four
- Patients with partial response ([6]; both in cohort 2 (300 mg/day), lung cancer and bile duct cancer): Two patients
- Patients with PD (progressive disease) ([6]; cohort 1, 200 mg/day): All patients
- progression-free survival (PFS) compared with placebo ([7]; maintenance treatment, regardless of germline BRCA mutation status): significantly prolonged
- Patients requiring a dosage reduction to 200 mg once daily ([7]; starting dosage 300 mg once daily): ~ 70%
- Dose dependence of mean Cmax and AUC0–24 ([8]; 200 and 300 mg/day, after multiple doses): increased dose-proportionally; also recorded: generally increased in a dose-proportional manner
- AUC(0-t) ([8]; human, plasma, 200 mg/day): 4930 ng·h/mL
- Cmax ([8]; human, plasma, 200 mg/day, plasma, Cycle 1 Day 1, Niraparib 200 mg/day (n = 3)): 443 ng/mL
- Cmax ([8]; human, plasma, 200 mg/day, plasma, Cycle 1 Day 21, Niraparib 200 mg/day (n = 3)): 729 ng/mL
- AUC(0-t) ([8]; human, plasma, 300 mg/day): 6270 ng·h/mL
- Cmax ([8]; human, plasma, 300 mg/day, plasma, Cycle 1 Day 1, Niraparib 300 mg/day (n = 6)): 530 ng/mL
- Cmax ([8]; human, plasma, 300 mg/day, plasma, Cycle 1 Day 21, Niraparib 300 mg/day (n = 4)): 1170 ng/mL
- Tmax ([8]; human, plasma, po, median tmax, single (cycle 1, day 1) and multiple (cycle 1, day 21) oral administration of niraparib 200 and 300 mg/day): 3 to 4 h
- Cmin ([8]; plasma, Cycle 1 Day 21, Niraparib 200 mg/day (n = 3)): 405.8 (267.8) ng/ml
- Cmin ([8]; plasma, Cycle 1 Day 21, Niraparib 300 mg/day (n = 4)): 592.3 (138.2) ng/ml
